Consider four compounds from PubChem BioAssay (NCI).

“And” between values parts separate entries of the source, which are not always exact repeats. Equal entries are not always repeated.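 Step 1: Grow cells in 96-well plates. Step 2: Expose to compound for 48 hours at 5 concentrations. Step 3: Interpolate endpoints linearly; if unreached, use highest concentration. Abbreviation: GI50, concentration required for 50% inhibition of growth. TGI denotes the concentration required for complete inhibition of growth.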 *1 amine or outer side, *2 acyl side, *3 side chain or, on linkers, in order; H or OH if unused. Where a SMILES comes first, the peptide text is derived from it. Bridges are numbered along the chain shown (N, C = ends). Roman numbers before positions name the chains, in order. [ ]: non-standard residue; d: D form. Actinocin(9to1) = Cc1c2oc3c(C)ccc(C(=O)[*:1])c3nc-2c(C(=O)[*:2])c(N)c1=O; NMeF = CN[CH](Cc1ccccc1)C(=O)O; Sar = CNCC(=O)O Some results are limits rather than exact numbers.

What all share (test): NCI-60 cell line screen, 48 h
The test system of assay [1] is A549 NSCLC.
Assay [2] deals with DU-145 prostate.
Assay [3] relates to HCT-15 colon.
In assay [4] the test system is HOP-62 NSCLC.
Assay [5] deals with HT29 colon.
The subject of assay [6] is MALME-3M melanoma.
Assay [7] relates to SK-MEL-2 melanoma.
Assay [8] deals with SN12C renal.
Assay [9] relates to SNB-75 CNS.
Assay [10] relates to SR leukemia.

With `CCSc1ccc(C2C(Br)C(=O)N2c2cc(OC)c(OC)c(OC)c2)cc1` (configuration not stated), the GI50 is 0.598 µM in [1]; 0.349 µM in assay [2]; 0.21 µM in [3]; 0.336 µM in [4]; 0.351 µM in assay [5]; 11.3 µM in [6]. For the same compound, the GI50 in [7] is 0.484 µM; in assay [8], 0.925 µM; in assay [9], 0.509 µM; in [10], 0.0765 µM. The TGI in assay [1] was more than 100 µM; in assay [2] it was more than 100 µM; in assay [3], 18.2 µM; in assay [4], more than 100 µM; in assay [5] it was 12.3 µM; in assay [6] it was 32.4 µM. Moreover, the TGI in [7] was more than 100 µM; in assay [8] it was 21 µM; in [9] it was more than 100 µM; in assay [10], 26.3 µM.

As to `CC(C)=CCCC(C)C1=C(O)C(=O)C(C)=CC1=O` (configuration not stated), the TGI in assay [1] is more than 100 µM; in assay [2] it was 33.3 µM; in assay [3], 5.75 µM; in assay [4], 36.9 µM; in assay [5], more than 64 µM; in [6] it was 23 µM. Further, the TGI in assay [7] was 34 µM; in [8] it was 34.6 µM; in [9], 37.6 µM; in [10] it was 5.39 µM.

As for `Cc1c2oc3c(C)ccc(C(=O)NC4C(=O)NC(C(C)C)C(=O)N5CCCC5C(=O)N(C)CC(=O)N(C)C(Cc5ccccc5)C(=O)OC4C)c3nc-2c(C(=O)NC2C(=O)NC(C(C)C)C(=O)N3CCCC3C(=O)N(C)CC(=O)N(C)C(Cc3ccccc3)C(=O)OC2C)c(N)c1=O` (configuration not stated) (I: TVP[Sar][NMeF] / II: TVP[Sar][NMeF]; ester I:1-I:C, II:1-II:C; linker I:N-II:N via Actinocin(9to1); configuration not given here), the GI50 in [1] is < 0.01 µM and 0.00145 µM; in assay [3], < 0.0147 µM and 0.0622 µM; in assay [5], < 0.01 µM and 0.00123 µM; in assay [8], < 0.01 µM and 0.00213 µM; in assay [10], 0.000199 µM. In addition, the TGI was 0.295 µM and > 1 µM in assay [1]; < 0.01 µM and 0.0698 µM in assay [2]; more than 31.6 µM in [3]; < 0.0134 µM and 0.0328 µM in assay [4]; < 0.01 µM and 0.0493 µM in [6]; < 0.01 µM and 0.0326 µM in assay [7]. The compound further displayed a TGI in assay [9] of 0.0645 µM.

`O=Nc1c(-c2c(O)[nH]c3ccc(Br)cc23)[nH]c2ccccc12`: the GI50 in assay [1] was 3.21 µM; in assay [2], 3.01 µM; in assay [3], 2.72 µM; in assay [4], 4.4 µM; in assay [5] it was 8.3 µM; in assay [6], 21.8 µM. Also, the GI50 is 2.65 µM in assay [7], 4.09 µM in [8], 7.58 µM in assay [9] and 2.12 µM in [10]. Besides, the TGI is more than 100 µM in [1]; 11.8 µM in [2]; 8.4 µM in [3]; 13.8 µM in [4]; more than 100 µM in assay [5]; more than 100 µM in [6]. Further, the TGI in assay [7] was more than 100 µM; in [8], more than 100 µM; in [9], 28.3 µM; in assay [10], 5.62 µM.
